27 compounds from patent US7968556B2, “Heteroaryl compounds, compositions thereof, and methods of treatment therewith” (Signal Pharmaceuticals, LLC, priority 2006, dated 2011) can be followed below.

One series concerns the target mTOR (Homo sapiens, UniProt P42345). Description: mTOR HTR-FRET Assay. Type of series: biochemical. How it is done: The following is an example of an assay that can be used to determine the mTOR inhibitory activity of a test compound. Reagents are prepared as follows:
“Simple TOR buffer” (used to dilute high glycerol TOR fraction): 10 mM Tris pH 7.4, 10 mM NaCl, 0.1% Tween-20, 1 mM DTT (from 1M stock frozen at −20° C. just prior to use). For convenience a large quantity of “Simple TOR buffer” w/o DTT can be stored at 4° C. It can be brought to room temperature and DTT added just prior to dilution of TOR fraction.
5XKB/5XMn/5×ATP solution (used to dilute substrate GST-p70S6kin 81 a.a. just prior to use) (40 ml screen quantity shown):
Enzyme solution: Dilute TOR fraction 1:14 in “Simple TOR Buffer”. For current lot that is 640 μg/ml TOR fraction diluted 14× to yield 45.7 μg/ml TOR in buffer (i.e. 7.85 ml TOR pooled fraction+102.1 ml Simple TOR buffer=110 ml 14× diluted TOR fraction). Each Enzyme Lot must be QC'd prior to assay.
Substrate solution: This may be prepared just prior to assay if preferred. Dilute 5.3 mg/ml GST-p70S6kinase fragment stock to 3.5 μg/ml (97 nM) working stock in 5XKB/5XMn/5×ATP solution (i.e. 26.41 μL (5.3 mg/ml) GST-p70S6+40 ml 5XKB/5XMn/5×ATP=40 ml 3.5 μg/ml (97 nM)).
Assay Buffer (for dilution of Antibodies used in Antibody Detection Reagent):
Antibody Detection Reagent (this reagent should be made just prior to addition to Assay Plates):
Using PlateTrak program (Screen) or Matrix Pipettor (SAR), 19.5 μL of diluted TOR fraction is added to assay plate in all test, reference or positive control wells. 19.5 μL of “Simple TOR buffer” is added to all negative control wells. If treating multiple plates with the same compounds, can increase volume of enzyme to multiples of 19.5 μL in a tall 384 well polypropylene plate.
Using EP3, 0.5 μl of test, reference or control DMSO is added to each well with mixing. Plates are incubated for 30 minutes at room temperature.
Using PlateTrak program (Screen) or Matrix Pipettor (SAR) 5 μL of 5XKB/5XMn/5×ATP/5× substrate solution is added to each well of the assay plate to start the reaction. The solutions are mixed well and incubated for 2 hours at room temperature.
Using PlateTrak program (Screen) or Matrix Pipettor (SAR) 5 μL of 60 mM EDTA is added to stop the reaction. The solutions are mixed well and allowed to sit for 15-20 minutes before the next step.
Using PlateTrak program (Screen) or Matrix Pipettor (SAR) 10 μl of Antibody Detection Reagent is added. The solutions are mixes well and incubated for 5 hours to O/N to allow antibodies to form complexes with phosphorylated substrate.
Plates are read on AnalystHT using protocol Multi-Method protocol.

Structures are written as SMILES.

A word on the IC50: it is the concentration at which inhibition is half-maximal. Read a high IC50 as a need for much substance. Regarding `NC(=O)c1nc(-c2cccnc2)nc2c1[nH]c(=O)n2C1CCCCCC1` [Compound 17, 9-cycloheptyl-8-oxo-2-(pyridin-3-yl)-8-9-dihydro-7H-purine-6-carboxamide], the IC50 against mTOR fell in the range of 0.1 to 5 µM.
As a reminder, the melting point is the temperature of the solid-liquid transition. With `COc1ccccc1-n1cnc2c(C(N)=O)nc(-c3cccc(O)c3)nc21` [Compound 39, 2-(3-hydroxyphenyl)-9-(2-methoxyphenyl)-9H-purine-6-carboxamide], the melting point lay in the range of 257 to 259 °C. For the same compound, on mTOR, the IC50 is 10.1 to 20 µM.
On to `COc1ccccc1-n1c(=O)[nH]c2c(C(N)=O)nc(-c3cncc(F)c3)nc21` [Compound 30, 2-(5-fluoropyridin-3-yl)-9-(2-methoxyphenyl)-8-oxo-8,9-dihydro-7H-purine-6-carboxamide], for which, at mTOR, the IC50 is 5.1 to 10 µM.
Compound `NC(=O)c1nc(-c2cccc(O)c2)nc2c1[nH]c(=O)n2-c1c(F)cccc1F` [Compound 16, 9-(2,6-difluorophenyl)-2-(3-hydroxyphenyl)-8-oxo-8,9-dihydro-7H-purine-6-carboxamide] registered a melting point of 355 to 358 °C. The compound also displayed an IC50 against mTOR of 0.1 to 5 µM.
The like results for `NC(=O)c1nc(-c2cccc(O)c2)nc2c1[nH]c(=O)n2Cc1ccccc1` [Compound 23, 9-benzyl-2-(3-hydroxyphenyl)-8-oxo-8,9-dihydro-7H-purine-6-carboxamide] were, in that order, 362 to 366 °C and greater than 30 µM.
For `COc1ccc(-c2nc(C(N)=O)c3[nH]c(=O)n(-c4ccccc4OC)c3n2)cn1` [Compound 21, 9-(2-methoxyphenyl)-2-(6-methoxypyridin-3-yl)-8-oxo-8,9-dihydro-7H-purine-6-carboxamide], the concentration for half-maximal inhibition (IC50) at mTOR was 10.1 to 20 µM.
The compound `NC(=O)c1nc(-c2cccc(O)c2)nc2c1[nH]c(=O)n2-c1cccc(F)c1` [Compound 28, 9-(3-fluorophenyl)-2-(3-hydroxyphenyl)-8-oxo-8,9-dihydro-7H-purine-6-carboxamide] returned a melting point greater than 375 °C. In addition, the half-maximal inhibitory concentration (IC50) at mTOR was greater than 30 µM.
Taken in the same sequence, the figures for `COc1ccccc1-n1c(=O)[nH]c2c(C(N)=O)nc(-c3cccc4ncccc34)nc21` [Compound 18, 9-(2-methoxyphenyl)-8-oxo-2-(quinolin-5-yl)-8,9-dihydro-7H-purine-6-carboxamide] were 335 to 337 °C and greater than 30 µM.
Taken in the same sequence, the figures for `COc1ccccc1-n1c(=O)[nH]c2c(C(N)=O)nc(-c3ccccc3C(F)(F)F)nc21` [Compound 29, 9-(2-methoxyphenyl)-8-oxo-2-(2-(trifluoromethyl)phenyl)-8,9-dihydro-7H-purine-6-carboxamide] were 237 to 240 °C and greater than 30 µM.
Taken in the same sequence, the figures for `NC(=O)c1nc(-c2cccc(O)c2)nc2c1[nH]c(=O)n2-c1ccc(Cl)cc1Cl` [Compound 25, 9-(2,4-dichlorophenyl)-2-(3-hydroxyphenyl)-8-oxo-8,9-dihydro-7H-purine-6-carboxamide] were 375 to 377 °C and 5.1 to 10 µM.
In turn, `COc1ccccc1-n1c(=O)[nH]c2c(C(N)=O)nc(C3CCN(Cc4ccccc4)CC3)nc21` [Compound 31, 2-(1-benzylpiperidin-4-yl)-9-(2-methoxyphenyl)-8-oxo-8,9-dihydro-7H-purine-6-carboxamide] registered an IC50 against mTOR greater than 30 µM.
As to `COc1ccccc1-n1c(=O)[nH]c2c(C(N)=O)nc(-c3cccc(C(F)(F)F)c3)nc21` [Compound 20, 9-(2-methoxyphenyl)-8-oxo-2-(3-(trifluoromethyl)phenyl)-8,9-dihydro-7H-purine-6-carboxamide], the melting point lay within 271 to 275 °C. At mTOR, the IC50 is greater than 30 µM.
On to `COc1ccc(F)c(-n2c(=O)[nH]c3c(C(N)=O)nc(-c4cccc(O)c4)nc32)c1` [Compound 149, 9-(2-Fluoro-5-methoxyphenyl)-2-(3-hydroxyphenyl)-8-oxo-8,9-dihydro-7H-purine-6-carboxamide], for which the melting point is greater than 260 °C.
In the case of `COc1ccccc1-n1c(=O)[nH]c2c(C(N)=O)nc(-c3ccc4nc(C(F)(F)F)[nH]c4c3)nc21` [Compound 117, 9-(2-Methoxyphenyl)-8-oxo-2-(2-(trifluoromethyl)-1H-benzo[d]imidazol-6-yl)-8,9-dihydro-7H-purine-6-carboxamide], the melting point was in the range of 220 to 222 °C.
For `NC(=O)c1nc(-c2cccnc2)nc2c1[nH]c(=O)n2[C@H]1CC[C@H](O)CC1` [Compound 48, 9-(trans-4-Hydroxycyclohexyl)-8-oxo-2-(pyridin-3-yl)-8,9-dihydro-7H-purine-6-carboxamide], the melting point was 331 to 333 °C.
At mTOR, `NC(=O)c1nc(-c2cccc(O)c2)nc2c1[nH]c(=O)n2-c1ccccc1OC(F)(F)F` [Compound 24, 2-(3-hydroxyphenyl)-8-oxo-9-(2-(trifluoromethoxy)phenyl)-8,9-dihydro-7H-purine-6-carboxamide] had an IC50 of 5.1 to 10 µM.
Turning to `NC(=O)c1nc(-c2cccc(O)c2)nc2c1[nH]c(=O)n2CC1CCCCC1` [Compound 140, 9-(Cyclohexylmethyl)-2-(3-hydroxyphenyl)-8-oxo-8,9-dihydro-7H-purine-6-carboxamide], the melting point fell in the range of 368 to 370 °C.
Same read-out and setting: the figure for `COc1ccccc1-n1c(=O)[nH]c2c(C(N)=O)nc(NCCO)nc21` [Compound 116, 2-(2-Hydroxyethylamino)-9-(2-methoxyphenyl)-8-oxo-8,9-dihydro-7H-purine-6-carboxamide] is 157 to 160 °C.
Regarding `NC(=O)c1nc(-c2cccc(O)c2)nc2c1[nH]c(=O)n2-c1ccc(C(F)(F)F)cc1` [Compound 22, 2-(3-hydroxyphenyl)-8-oxo-9-(4-(trifluoromethyl)phenyl)-8,9-dihydro-7H-purine-6-carboxamide], the 50% inhibitory concentration (IC50) against mTOR was greater than 30 µM.
The compound `COc1ccccc1-n1c(=O)[nH]c2c(C(N)=O)nc(C3CCCC3)nc21` [Compound 19, 2-cyclopentyl-9-(2-methoxyphenyl)-8-oxo-8,9-dihydro-7H-purine-6-carboxamide] returned a melting point of 244 to 246 °C. At mTOR, this compound gave an IC50 greater than 30 µM.
Take `COc1ccccc1-n1c(=O)[nH]c2c(C(N)=O)nc(N[C@H]3CCNC3)nc21` [Compound 106, (S)-9-(2-Methoxyphenyl)-8-oxo-2-(pyrrolidin-3-ylamino)-8,9-dihydro-7H-purine-6-carboxamide]: the melting point was greater than 400 °C.
For the compound `NC(=O)c1nc(-c2ccc3nc[nH]c3c2)nc2c1[nH]c(=O)n2C1CCCCC1` [Compound 156, 2-(1H-benzo[d]imidazol-6-yl)-9-cyclohexyl-8-oxo-8,9-dihydro-7H-purine-6-carboxamide], the melting point is 280 °C (dec.).
Regarding `CC(C)c1ccccc1-n1c(=O)[nH]c2c(C(N)=O)nc(-c3ccc4[nH]ccc4c3)nc21` [Compound 139, 2-(1H-Indol-5-yl)-9-(2-isopropylphenyl)-8-oxo-8,9-dihydro-7H-purine-6-carboxamide], the melting point was 310 °C (dec.).
For the compound `COc1ccccc1-n1c(=O)[nH]c2c(C(N)=O)nc(-c3cccc(OC(F)(F)F)c3)nc21` [Compound 34, 9-(2-methoxphenyl)-8-oxo-2-(3-(trifluoromethoxy)phenyl)-8,9-dihydro-7H-purine-6-carboxamide], the melting point fell in the range of 269 to 272 °C. At mTOR, this compound yielded a half-maximal inhibitory concentration (IC50) greater than 30 µM.
As to `CC(C)(C)c1ccccc1-n1c(=O)[nH]c2c(C(N)=O)nc(-c3cccc(O)c3)nc21` [Compound 125, 9-(2-tert-Butylphenyl)-2-(3-hydroxyphenyl)-8-oxo-8,9-dihydro-7H-purine-6-carboxamide], the melting point lay in the range of 294 to 297 °C.
On the same count and under the same terms, the figure for `CC(C)c1ccccc1-n1c(=O)[nH]c2c(C(N)=O)nc(-c3ccc(-n4ccnc4)cc3)nc21` [Compound 131, 2-(4-(1H-Imidazol-1-yl)phenyl)-9-(2-isopropylphenyl)-8-oxo-8,9-dihydro-7H-purine-6-carboxamide] is 232 °C; for `COc1ccccc1-n1c(=O)[nH]c2c(C(N)=O)nc(-c3ccc4nc(C)[nH]c4c3)nc21` [Compound 122, 9-(2-Methoxyphenyl)-2-(2-methyl-1H-benzo[d]imidazol-6-yl)-8-oxo-8,9-dihydro-7H-purine-6-carboxamide] it is 270 °C.
